A word on the MIC: it is the smallest concentration in the dilution series that meets the test's criterion for growth inhibition. Higher therefore signals weaker potency.

The source of these data is ChEMBL document CHEMBL4308875, “Synthesis, antituberculosis studies and biological evaluation of new quinoline derivatives carrying 1,2,4-oxadiazole moiety” (Bioorg Med Chem Lett, 2019).

Format in all cases: functional
Details in all cases: 168 h

Experiment [1] concerns Mycobacterium tuberculosis. Nature of the experiment: Antitubercular activity against d-cycloserine-resistant Mycobacterium tuberculosis after 7 days by resazurin dye based colorimetric assay.
In experiment [2] the test system is Mycobacterium tuberculosis. Nature of the experiment: Antitubercular activity against isoniazid-resistant Mycobacterium tuberculosis after 7 days by resazurin dye based colorimetric assay. Background: Alamar Blue is a resazurin reagent that responds to reducing activity.
For experiment [3], the system named is Mycobacterium tuberculosis. As to the kind of experiment: Antitubercular activity against rifampicin-resistant Mycobacterium tuberculosis after 7 days by resazurin dye based colorimetric assay.
In experiment [4] the test system is Mycobacterium tuberculosis. As to the kind of experiment: Antitubercular activity against streptomycin-resistant Mycobacterium tuberculosis after 7 days by resazurin dye based colorimetric assay.
For experiment [5], the system named is Mycobacterium tuberculosis. Nature of the experiment: Antitubercular activity against moxifloxacin-resistant Mycobacterium tuberculosis after 7 days by resazurin dye based colorimetric assay.
The subject of experiment [6] is Mycobacterium tuberculosis. As to the kind of experiment: Antitubercular activity against kanamycin-resistant Mycobacterium tuberculosis after 7 days by resazurin dye based colorimetric assay.

≈ marks a conversion by molar mass, not a printed value.

As to `NNC(=O)c1ccncc1` [ISONIAZID], the MIC in experiment [1] is 3.78 µg/mL (≈ 27.6 µM); in experiment [2], more than 8 µg/mL; in experiment [3] it was 0.49 µg/mL (≈ 3.57 µM); in experiment [4], 1 µg/mL (≈ 7.29 µM); in experiment [5], 0.49 µg/mL (≈ 3.57 µM); in experiment [6], 0.49 µg/mL (≈ 3.57 µM).
As for `CO[C@H]1/C=C/O[C@@]2(C)Oc3c(C)c(O)c4c(O)c(c(/C=N/N5CCN(C)CC5)c(O)c4c3C2=O)NC(=O)/C(C)=C\C=C\[C@H](C)[C@H](O)[C@@H](C)[C@@H](O)[C@@H](C)[C@H](OC(C)=O)[C@@H]1C` [RIFAMPIN], the MIC in experiment [1] is less than 0.02 µg/mL; in experiment [2] it was less than 0.02 µg/mL; in experiment [3], more than 4 µg/mL; in experiment [4] it was 0.05 µg/mL (≈ 0.0608 µM); in experiment [5] it was 0.23 µg/mL (≈ 0.279 µM); in experiment [6], less than 0.02 µg/mL.
For the compound `CC(=O)NC[C@H]1CN(c2ccc(N3CCOCC3)c(F)c2)C(=O)O1` [LINEZOLID], the MIC in experiment [1] was determined as 10.3 µg/mL (≈ 30.7 µM); in experiment [2], 2.33 µg/mL (≈ 6.91 µM); in experiment [3] it was 1.68 µg/mL (≈ 4.98 µM); in experiment [4] it was 14.1 µg/mL (≈ 41.7 µM); in experiment [5], 3.65 µg/mL (≈ 10.8 µM); in experiment [6], 1.91 µg/mL (≈ 5.66 µM).
Regarding `COc1c(N2C[C@@H]3CCCN[C@@H]3C2)c(F)cc2c(=O)c(C(=O)O)cn(C3CC3)c12` [MOXIFLOXACIN], the MIC in experiment [1] is 0.46 µg/mL (≈ 1.15 µM); in experiment [2] it was 0.49 µg/mL (≈ 1.22 µM); in experiment [3], 0.42 µg/mL (≈ 1.05 µM); in experiment [4], 0.94 µg/mL (≈ 2.34 µM); in experiment [5], more than 16 µg/mL; in experiment [6] it was 0.21 µg/mL (≈ 0.523 µM).
On to `CC(C)c1ccc(-c2nc(CN3CCN(c4ccnc5cc(Cl)ccc45)CC3)no2)cc1`, for which the MIC in experiment [1] worked out at 3.68 µg/mL (≈ 8.21 µM); in experiment [2] it was 4.17 µg/mL (≈ 9.31 µM); in experiment [3], 3.81 µg/mL (≈ 8.51 µM); in experiment [4] it was 28.6 µg/mL (≈ 63.8 µM); in experiment [5], 4.01 µg/mL (≈ 8.95 µM); in experiment [6], 3.24 µg/mL (≈ 7.23 µM).
